From patent US20260125382A1, “COMPOUNDS FOR INHIBITING OR DEGRADING CDK2 AND/OR CDK9 AND MEDICINAL USE THEREOF” (KOREA RESEARCH INSTITUTE OF CHEMICAL TECHNOLOGY, priority 2022, published 2026)

Tests used:
CDK9 = target: T1, CDK9 (Homo sapiens, UniProt P50750); assay: CDK protein degradation activity (Western blotting), CDK9; type: cell-based; conditions: MDA-MB-231 cells, 16 hours, Western blot
T1 construct: endogenous in cells; host or cells: MDA-MB-231
In short: (§1)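 MDA-MB-231 cells treated 16 h with compound at 100 nM, 1 μM or 10 μM, with DMSO as control. Lysates run on SDS-PAGE and immunoblotted for CDK2, CDK9 and tubulin; band levels quantified by densitometry.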

CDK2 = target: T2, CDK2 (Homo sapiens, UniProt P24941); assay: CDK protein degradation activity (Western blotting), CDK2; type: cell-based; conditions: MDA-MB-231 cells, 16 hours, Western blot
T2 construct: endogenous in cells; host or cells: MDA-MB-231
In short: as §1

T1 sequence (P50750 whole entry): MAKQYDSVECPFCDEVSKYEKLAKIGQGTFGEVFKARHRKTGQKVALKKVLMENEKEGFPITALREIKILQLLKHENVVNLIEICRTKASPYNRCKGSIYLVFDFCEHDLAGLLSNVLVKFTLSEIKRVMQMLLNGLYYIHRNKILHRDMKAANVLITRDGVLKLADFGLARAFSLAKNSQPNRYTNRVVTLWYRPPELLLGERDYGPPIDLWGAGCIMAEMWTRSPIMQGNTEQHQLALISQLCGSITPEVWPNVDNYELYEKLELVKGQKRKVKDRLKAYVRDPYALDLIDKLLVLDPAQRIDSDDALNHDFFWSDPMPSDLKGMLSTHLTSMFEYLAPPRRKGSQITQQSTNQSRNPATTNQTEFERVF

Compound | Enzyme degradation CDK9 (% remaining) @ 0.1 μM (CDK9) | Enzyme degradation CDK9 (% remaining) @ 1 μM (CDK9) | Enzyme degradation CDK9 (% remaining) @ 10 μM (CDK9) | Enzyme degradation CDK2 (% remaining) @ 0.1 μM (CDK2) | Enzyme degradation CDK2 (% remaining) @ 1 μM (CDK2) | Enzyme degradation CDK2 (% remaining) @ 10 μM (CDK2)
CC(=O)N[C@H]1C[C@@H](n2cnc3c(NCc4ccc(N5CCN(CC6CCN(C(=O)CNc7ccc8c(c7)C(=O)N([C@H]7CCC(=O)NC7=O)C8=O)CC6)CC5)cc4)ncnc32)C1 [Compound 161, N-((1s,3s)-3-(6-((4-(4-((1-((2-(2,6-dioxopiperidin-3-yl)-1,3-dioxoisoindolin-5-yl)glycyl)piperidin-4-yl)methyl)piperazin-1-yl)benzyl)amino)-9H-purin-9-yl)cyclobutyl)acetamide] | 30% | 10% | 10% | 90% | 80% | 60%
O=C1CC[C@H](N2C(=O)c3ccc(OCC(=O)N4CCC(CN5CCN(c6ccc(Nc7ncnc8c7ncn8[C@H]7C[C@@H](NC(=O)c8c(Cl)cccc8Cl)C7)cc6)CC5)CC4)cc3C2=O)C(=O)N1 [Compound 162, 2,6-dichloro-N-((1s,3s)-3-(6-((4-(4-((1-(2-((2-(2,6-dioxopiperidin-3-yl)-1,3-dioxoisoindolin-5-yl)oxy)acetyl)piperidin-4-yl)methyl)piperazin-1-yl)phenyl)amino)-9H-purin-9-yl)cyclobutyl)benzamide] | 0/0/0% | 0/0/0% | 0/0/0% | 50/50/50% | 50/50/50% | 50/50/50%
O=C1CC[C@H](N2C(=O)c3cccc(OCC(=O)N4CCC(CN5CCN(c6ccc(Nc7ncnc8c7ncn8[C@H]7C[C@@H](NC(=O)c8c(Cl)cccc8Cl)C7)cc6)CC5)CC4)c3C2=O)C(=O)N1 [Compound 163, 2,6-dichloro-N-((1s,3s)-3-(6-((4-(4-((1-(2-((2-(2,6-dioxopiperidin-3-yl)-1,3-dioxoisoindolin-4-yl)oxy)acetyl)piperidin-4-yl)methyl)piperazin-1-yl)phenyl)amino)-9H-purin-9-yl)cyclobutyl)benzamide] | 0/0/0% | 0/0/0% | 0/0/0% | 20% | 10% | 10%
O=C1CC[C@H](N2C(=O)c3ccc(NCC(=O)N4CCC(CN5CCN(c6ccc(Nc7ncnc8c7ncn8C7CC(NC(=O)c8c(Cl)cccc8Cl)C7)cc6)CC5)CC4)cc3C2=O)C(=O)N1 (stereo partly drawn) [Compound 164, 2,6-dichloro-N-((1s,3s)-3-(6-((4-(4-((1-((2-(2,6-dioxopiperidin-3-yl)-1,3-dioxoisoindolin-5-yl)glycyl)piperidin-4-yl)methyl)piperazin-1-yl)phenyl)amino)-9H-purin-9-yl)cyclobutyl)benzamide] | 0/0/0% | 0/0/0% | 0/0/0% | 30/30/30% | 30/30/30% | 30/30/30%
O=C1CC[C@H](N2C(=O)c3cccc(NCC(=O)N4CCC(CN5CCN(c6ccc(Nc7ncnc8c7ncn8[C@H]7C[C@@H](NC(=O)c8c(Cl)cccc8Cl)C7)cc6)CC5)CC4)c3C2=O)C(=O)N1 [Compound 165, 2,6-dichloro-N-((1s,3s)-3-(6-((4-(4-((1-((2-(2,6-dioxopiperidin-3-yl)-1,3-dioxoisoindolin-4-yl)glycyl)piperidin-4-yl)methyl)piperazin-1-yl)phenyl)amino)-9H-purin-9-yl)cyclobutyl)benzamide] | 0/0/0% | 0/0/0% | 0/0/0% | 10/10/10% | 10/10/10% | 10/10/10%
O=C1CC[C@H](N2C(=O)c3ccc(N4CCC(CN5CCN(c6ccc(Nc7ncnc8c7ncn8C7CC(NC(=O)c8c(Cl)cccc8Cl)C7)cc6)CC5)CC4)cc3C2=O)C(=O)N1 (stereo partly drawn) [Compound 166, 2,6-dichloro-N-((1s,3s)-3-(6-((4-(4-((1-(2-(2,6-dioxopiperidin-3-yl)-1,3-dioxoisoindolin-5-yl)piperidin-4-yl)methyl)piperazin-1-yl)phenyl)amino)-9H-purin-9-yl)cyclobutyl)benzamide] | 0/0/0% | 0/0/0% | 0/0/0% | 10% | 20% | 20%
O=C1CC[C@H](N2C(=O)c3cccc(N4CCC(CN5CCN(c6ccc(Nc7ncnc8c7ncn8[C@H]7C[C@@H](NC(=O)c8c(Cl)cccc8Cl)C7)cc6)CC5)CC4)c3C2=O)C(=O)N1 [Compound 167, 2,6-dichloro-N-((1s,3s)-3-(6-((4-(4-((1-(2-(2,6-dioxopiperidin-3-yl)-1,3-dioxoisoindolin-4-yl)piperidin-4-yl)methyl)piperazin-1-yl)phenyl)amino)-9H-purin-9-yl)cyclobutyl)benzamide] | 0/0/0% | 0/0/0% | 0/0/0% | 30% | 40% | 30%
O=C1CC[C@H](N2C(=O)c3cccc(OCC(=O)N4CCC(CN5CCC(CNc6ncnc7c6ncn7C6CC(NC(=O)c7c(Cl)cccc7Cl)C6)CC5)CC4)c3C2=O)C(=O)N1 (stereo partly drawn) [Compound 168, 2,6-dichloro-N-((1s,3s)-3-(6-(((1-((1-(2-((2-(2,6-dioxopiperidin-3-yl)-1,3-dioxoisoindolin-4-yl)oxy)acetyl)piperidin-4-yl)methyl)piperidin-4-yl)methyl)amino)-9H-purin-9-yl)cyclobutyl)benzamide] | 80% | 40% | 10% | 50% | 10% | 10%
O=C1CC[C@H](N2C(=O)c3ccc(OCC(=O)N4CCC(CN5CCC(CNc6ncnc7c6ncn7C6CC(NC(=O)c7c(Cl)cccc7Cl)C6)CC5)CC4)cc3C2=O)C(=O)N1 (stereo partly drawn) [Compound 169, 2,6-dichloro-N-((1s,3s)-3-(6-(((1-((1-(2-((2-(2,6-dioxopiperidin-3-yl)-1,3-dioxoisoindolin-5-yl)oxy)acetyl)piperidin-4-yl)methyl)piperidin-4-yl)methyl)amino)-9H-purin-9-yl)cyclobutyl)benzamide] | 10% | 0% | 0% | 80% | 70% | 70%
O=C1CC[C@H](N2C(=O)c3cccc(NCC(=O)N4CCC(CN5CCC(CNc6ncnc7c6ncn7[C@H]6C[C@@H](NC(=O)c7c(Cl)cccc7Cl)C6)CC5)CC4)c3C2=O)C(=O)N1 [Compound 170, 2,6-dichloro-N-((1s,3s)-3-(6-(((1-((1-((2-(2,6-dioxopiperidin-3-yl)-1,3-dioxoisoindolin-4-yl)glycyl)piperidin-4-yl)methyl)piperidin-4-yl)methyl)amino)-9H-purin-9-yl)cyclobutyl)benzamide] | 10% | 0% | 10% | 0% | 10% | 20%
O=C1CCC(N2C(=O)c3ccc(NCC(=O)N4CCC(CN5CCC(CNc6ncnc7c6ncn7[C@H]6C[C@@H](NC(=O)c7c(Cl)cccc7Cl)C6)CC5)CC4)cc3C2=O)C(=O)N1 (stereo partly drawn) [Compound 171, 2,6-dichloro-N-((1s,3s)-3-(6-(((1-((1-((2-(2,6-dioxopiperidin-3-yl)-1,3-dioxoisoindolin-5-yl)glycyl)piperidin-4-yl)methyl)piperidin-4-yl)methyl)amino)-9H-purin-9-yl)cyclobutyl)benzamide] | 0/0/0% | 0/0/0% | 0/0/0% | 20% | 10% | 10%
O=C1CC[C@H](N2C(=O)c3cccc(N4CCC(CN5CCC(CNc6ncnc7c6ncn7C6CC(NC(=O)c7c(Cl)cccc7Cl)C6)CC5)CC4)c3C2=O)C(=O)N1 (stereo partly drawn) [Compound 172, 2,6-dichloro-N-((1s,3s)-3-(6-(((1-((1-(2-(2,6-dioxopiperidin-3-yl)-1,3-dioxoisoindolin-4-yl)piperidin-4-yl)methyl)piperidin-4-yl)methyl)amino)-9H-purin-9-yl)cyclobutyl)benzamide] | 50% | 0% | 0% | 10% | 20% | 20%
O=C1CC[C@H](N2C(=O)c3ccc(N4CCC(CN5CCC(CNc6ncnc7c6ncn7[C@H]6C[C@@H](NC(=O)c7c(Cl)cccc7Cl)C6)CC5)CC4)cc3C2=O)C(=O)N1 [Compound 173, 2,6-dichloro-N-((1s,3s)-3-(6-(((1-((1-(2-(2,6-dioxopiperidin-3-yl)-1,3-dioxoisoindolin-5-yl)piperidin-4-yl)methyl)piperidin-4-yl)methyl)amino)-9H-purin-9-yl)cyclobutyl)benzamide] | 50% | 20% | 0% | 30% | 30% | 50%
